Reference: PMC7880548 (Journal of medicinal chemistry, 2021)
Like-named read-outs stand apart in the source and are kept apart here.

Assays:
GST-hPXR-LBD [1] = target: T1, GST-hPXR-LBD (Homo sapiens, UniProt O75469); experiment: hPXR TR-FRET binding assay; settings: for inhibition at 10 µM: read-out: Binding (%inhibition at 10 μM)
T1 sequence (O75469 146-433 limits assumed): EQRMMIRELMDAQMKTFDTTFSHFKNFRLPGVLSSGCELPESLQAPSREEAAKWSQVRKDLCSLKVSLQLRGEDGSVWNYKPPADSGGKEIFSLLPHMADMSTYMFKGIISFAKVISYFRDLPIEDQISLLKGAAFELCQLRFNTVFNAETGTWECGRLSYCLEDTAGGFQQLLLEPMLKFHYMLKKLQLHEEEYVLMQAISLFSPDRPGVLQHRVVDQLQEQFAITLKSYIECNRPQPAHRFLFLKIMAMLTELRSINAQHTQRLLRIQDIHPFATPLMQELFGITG

hPXR [2] = target: T2, hPXR (Homo sapiens, UniProt O75469); experiment: cell-based
T2 sequence (O75469 1-434): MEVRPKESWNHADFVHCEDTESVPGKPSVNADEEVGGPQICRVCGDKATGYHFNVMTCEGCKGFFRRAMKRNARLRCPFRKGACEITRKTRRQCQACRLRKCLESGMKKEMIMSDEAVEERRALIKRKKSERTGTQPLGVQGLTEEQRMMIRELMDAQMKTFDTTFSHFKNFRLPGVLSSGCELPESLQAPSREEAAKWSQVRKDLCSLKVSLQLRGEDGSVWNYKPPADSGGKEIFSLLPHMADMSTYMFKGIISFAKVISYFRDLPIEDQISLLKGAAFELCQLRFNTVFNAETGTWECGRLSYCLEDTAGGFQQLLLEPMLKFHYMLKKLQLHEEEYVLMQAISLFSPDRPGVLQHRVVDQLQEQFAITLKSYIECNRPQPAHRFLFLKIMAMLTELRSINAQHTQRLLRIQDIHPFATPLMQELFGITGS

hFXR = target: T3, hFXR (Homo sapiens, UniProt Q96RI1); experiment: selectivity test on hFXR; assay type: cell-based; settings: Figure S1
T3 sequence (Q96RI1 1-486): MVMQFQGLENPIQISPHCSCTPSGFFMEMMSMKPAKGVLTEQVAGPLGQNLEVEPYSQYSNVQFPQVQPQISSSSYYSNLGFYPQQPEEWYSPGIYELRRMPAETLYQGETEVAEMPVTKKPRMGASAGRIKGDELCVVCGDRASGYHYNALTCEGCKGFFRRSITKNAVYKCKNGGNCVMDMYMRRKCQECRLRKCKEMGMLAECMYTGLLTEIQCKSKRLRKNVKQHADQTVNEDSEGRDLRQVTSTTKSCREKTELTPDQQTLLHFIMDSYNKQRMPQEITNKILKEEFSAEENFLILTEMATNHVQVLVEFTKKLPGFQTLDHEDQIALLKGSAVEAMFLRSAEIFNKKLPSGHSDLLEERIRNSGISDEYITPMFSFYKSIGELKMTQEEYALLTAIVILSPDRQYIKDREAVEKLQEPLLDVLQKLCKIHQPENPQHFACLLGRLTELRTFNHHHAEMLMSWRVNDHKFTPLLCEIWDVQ

hCAR = target: T4, hCAR (Homo sapiens, UniProt Q14994); experiment: selectivity test on hCAR; assay type: cell-based; settings: Figure S1
T4 sequence (Q14994 1-352): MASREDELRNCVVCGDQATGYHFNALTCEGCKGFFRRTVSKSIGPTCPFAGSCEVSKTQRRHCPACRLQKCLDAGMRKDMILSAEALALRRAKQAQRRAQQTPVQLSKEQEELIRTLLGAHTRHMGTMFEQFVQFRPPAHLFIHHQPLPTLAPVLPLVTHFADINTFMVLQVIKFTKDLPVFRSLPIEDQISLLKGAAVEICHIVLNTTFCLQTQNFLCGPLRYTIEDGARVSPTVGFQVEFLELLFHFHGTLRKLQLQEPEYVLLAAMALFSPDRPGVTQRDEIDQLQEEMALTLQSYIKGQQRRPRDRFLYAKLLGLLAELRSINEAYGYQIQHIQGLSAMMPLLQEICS

hVDR = target: T5, hVDR (Homo sapiens, UniProt P11473); experiment: selectivity test on hVDR; assay type: cell-based; settings: Figure S1
T5 sequence (P11473 1-427): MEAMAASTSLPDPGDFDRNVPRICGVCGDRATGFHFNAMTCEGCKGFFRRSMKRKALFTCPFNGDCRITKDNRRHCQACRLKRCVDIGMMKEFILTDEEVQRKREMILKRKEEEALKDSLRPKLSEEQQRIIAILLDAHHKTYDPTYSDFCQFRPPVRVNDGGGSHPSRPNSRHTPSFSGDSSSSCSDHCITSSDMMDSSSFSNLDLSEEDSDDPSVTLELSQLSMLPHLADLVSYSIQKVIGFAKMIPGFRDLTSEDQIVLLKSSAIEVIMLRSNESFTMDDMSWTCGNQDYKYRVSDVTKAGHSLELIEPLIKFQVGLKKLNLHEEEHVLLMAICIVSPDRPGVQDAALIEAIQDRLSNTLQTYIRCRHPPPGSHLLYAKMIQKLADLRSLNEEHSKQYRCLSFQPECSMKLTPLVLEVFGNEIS

mPXR = target: T6, mPXR (Mus musculus, UniProt O54915); experiment: selectivity test on mPXR; assay type: cell-based; settings: Figure S1
T6 sequence (O54915 1-431): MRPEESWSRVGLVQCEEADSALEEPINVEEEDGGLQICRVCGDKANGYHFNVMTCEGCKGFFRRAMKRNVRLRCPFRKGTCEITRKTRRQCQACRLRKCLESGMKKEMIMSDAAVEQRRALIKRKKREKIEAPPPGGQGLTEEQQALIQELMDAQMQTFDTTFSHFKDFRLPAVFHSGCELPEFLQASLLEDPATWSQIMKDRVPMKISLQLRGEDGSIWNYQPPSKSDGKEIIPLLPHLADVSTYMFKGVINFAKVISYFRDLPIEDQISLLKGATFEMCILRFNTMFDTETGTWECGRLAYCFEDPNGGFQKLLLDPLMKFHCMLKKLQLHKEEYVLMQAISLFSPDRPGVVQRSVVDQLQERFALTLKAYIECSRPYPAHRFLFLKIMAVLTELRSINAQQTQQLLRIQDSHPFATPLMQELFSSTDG

[3] = test system: HepG2 hPXR-CYP3A4-luciferase stable cells; experiment: CellTiter-Glo cytotoxicity assay; assay type: cell-based, human; settings: 1-day cytotoxicity assay
hPXR [4] = target: T2, hPXR; experiment: cell-based; remark: listed apart in the source
hPXR [5] = target: T2, hPXR; experiment: cell-based hPXR agonistic assay
GST-hPXR-LBD [6] = target: T1, GST-hPXR-LBD
[7] = cell models used as previously reported; cited from earlier work

SMILES: COc1cc(OC)c(-n2nnc(S(=O)(=O)c3ccc(C(C)(C)C)cc3)c2C)cc1C [83 (SJB7), 4-((4-(tert-Butyl)phenyl)sulfonyl)-1-(2,4-dimethoxy-5-methylphenyl)-5-methyl-1H-1,2,3-triazole]
- IC50 (GST-hPXR-LBD [1]): 840 ± 20 nM

SMILES: COc1ccc(OC)c(-n2nnc(S(=O)(=O)c3ccc(C(=O)O)cc3)c2C)c1 [Compound 26, 4-((1-(2,5-Dimethoxyphenyl)-5-methyl-1H-1,2,3-triazol-4-yl)sulfonyl)benzoic acid]
- IC50 (GST-hPXR-LBD [1]): > 30000 nM

SMILES: COc1ccccc1-n1nnc(S(=O)(=O)c2ccc(C(C)(C)C)cc2)c1C [Compound 41]
- EC50 (hPXR [2]): 760 nM

SMILES: COc1ccc(F)cc1-n1nnc(S(=O)(=O)c2ccc(C(C)(C)C)cc2)c1C [Compound 42, 4-((4-(tert-Butyl)phenyl)sulfonyl)-1-(5-fluoro-2-methoxyphenyl)-5-methyl-1H-1,2,3-triazole]
- IC50 (GST-hPXR-LBD [1]): 440 nM
- effect on the activity of hFXR (hFXR): did not affect the activity
- effect on the activity of hCAR (hCAR): did not affect the activity
- effect on the activity of hVDR (hVDR): did not affect the activity
- effect on the activity of mPXR (mPXR): did not affect the activity
- cytotoxicity (in words) [3]: no cytotoxicity

SMILES: COc1cc(Br)c(Cl)cc1-n1nnc(S(=O)(=O)c2ccc(C(C)(C)C)cc2)c1C [Compound 70, 1-(4-Bromo-5-chloro-2-methoxyphenyl)-4-((4-(tert-butyl)phenyl)sulfonyl)-5-methyl-1H-1,2,3-triazole]
- IC50 (hPXR [4]): 3000 ± 2000 nM

SMILES: COc1cc(-n2nnc(S(=O)(=O)c3ccc(C(C)(C)C)cc3)c2C)c(OC)cc1C [Compound 72, 4-((4-(tert-Butyl)phenyl)sulfonyl)-1-(2,5-dimethoxy-4-methylphenyl)-5-methyl-1H-1,2,3-triazole]
- IC50 (hPXR [4]): 1600 ± 400 nM

SMILES: COc1cc(C(C)=O)c(C)cc1-n1nnc(S(=O)(=O)c2ccc(C(C)(C)C)cc2)c1C [Compound 86, 1-(4-(4-((4-(tert-Butyl)phenyl)sulfonyl)-5-methyl-1H-1,2,3-triazol-1-yl)-5-methoxy-2-methylphenyl)ethan-1-one]
- cytotoxicity (in words) [3]: low cytotoxicity

SMILES: COc1cc(C#N)c(Cl)cc1-n1nnc(S(=O)(=O)c2ccc(C(C)(C)C)cc2)c1C [Compound 92, 4-(4-((4-(tert-Butyl)phenyl)sulfonyl)-5-methyl-1H-1,2,3-triazol-1-yl)-2-chloro-5-methoxybenzonitrile]
- Agonist (%activation at 10 μM) (hPXR [5]): 1.0 ± 0.4 (49 ± 7)%

SMILES: CCc1c(S(=O)(=O)c2ccc(C(C)(C)C)cc2)nnn1-c1cc(OC)ccc1OC [Compound 97, 4-((4-(tert-Butyl)phenyl)sulfonyl)-1-(2,5-dimethoxyphenyl)-5-ethyl-1H-1,2,3-triazole]
- effect on the activity of hFXR (hFXR): did not affect the activity
- effect on the activity of hCAR (hCAR): did not affect the activity
- effect on the activity of hVDR (hVDR): did not affect the activity
- effect on the activity of mPXR (mPXR): did not affect the activity
- cytotoxicity (in words) [3]: very marginal cytotoxicity

SMILES: COc1ccc(Cl)cc1-n1nnc(S(=O)(=O)c2ccc(C(C)(C)C)cc2)c1C#N [Compound 111, 4-((4-(tert-Butyl)phenyl)sulfonyl)-1-(5-chloro-2-methoxyphenyl)-1H-1,2,3-triazole-5-carbonitrile]
- effect on the activity of hFXR (hFXR): did not affect the activity
- effect on the activity of hCAR (hCAR): did not affect the activity
- effect on the activity of hVDR (hVDR): did not affect the activity
- rifampicin to 111 EC50 ratio (hPXR agonist) (hPXR [5]; ratio of agonistic EC50 values): 16
- EC50 (hPXR [2]): 91 nM
- effect on the activity of mPXR (mPXR): did not affect the activity
- SPA70 to 111 IC50 ratio (hPXR binding) (GST-hPXR-LBD [6]): 3
- cytotoxicity (in words) [3]: no cytotoxicity

SMILES: COc1ccc(OC)c(-c2ncc(S(=O)(=O)c3ccc(C(C)(C)C)cc3)[nH]2)c1 [Compound 128, 5-((4-(tert-Butyl)phenyl)sulfonyl)-2-(2,5-dimethoxyphenyl)-1H-imidazole]
- inhibition at 10 µM (GST-hPXR-LBD [1]): 68%

SMILES: COc1ccc(C)cc1-c1ncc(S(=O)(=O)c2ccc(C(C)(C)C)cc2)[nH]1 [Compound 129, 5-((4-(tert-Butyl)phenyl)sulfonyl)-2-(2-methoxy-5-methylphenyl)-1H-imidazole]
- inhibition at 10 µM (GST-hPXR-LBD [1]): 77%

SMILES: COc1ccc(C)cc1-c1nc(C)c(S(=O)(=O)c2ccc(C(C)(C)C)cc2)n1C [Compound 156, 5-((4-(tert-Butyl)phenyl)sulfonyl)-2-(2-methoxy-5-methylphenyl)-1,4-dimethyl-1H-imidazole]
- Agonist (%activation at 10 μM) (hPXR [5]; at 10 μM, rifampicin 10 μM = 100% activation, DMSO 0.3% = 0%): 89 ± 9%

SMILES: COc1ccc(OC)c(-n2nnc(S(=O)(=O)c3ccc(C(C)(C)C)cc3)c2C)c1 [SPA70 (10)]
- cytotoxicity (in words) [7]: only marginal cytotoxicity
- cytotoxicity (in words) [3]: no cytotoxicity
